Data set [1] concerns liver cancer cell line HepG2; colorectal cancer cell line LoVo, HT29, SW620, SW480. Briefly: MTT growth inhibition, Apatinib alone vs Apatinib+Sotagliflozin on tumor cell lines. It is filed as cell-based. Particulars: Apatinib 5-30 μM alone or with Sotagliflozin 20 μM, 48 hours. The text has this: After obtaining the effectiveness of Gefitinib in Example 1, the present disclosure further validated another VEGFR-targeting TKI drug, Apatinib. According to the tissue distribution characteristics of VEGFR and SGLT1/2, the targets of Apatinib and Sotagliflozin, the followings cells were selected for experimental verification: liver cancer cell line HepG2; colorectal cancer cell line LoVo, HT29, SW620, SW480; cervical cancer HeLa; ovarian cancer SKOV3; gastric cancer HGC27; cholangiocarcinoma RBE; esophageal cancer KYSE3, and the like. After growing to 80% density, the cells were trypsinized, passaged and plated in a 96-well plate with 5000 cells per well. After 24 hours, the medium was replaced with a medium containing the corresponding concentration of Apatinib, Sotagliflozin, or the combination of Apatinib and Sotagliflozin. After 48 hours, the absorbance at each concentration was detected by the MTT method. The experiment included the following groups: Control group: cells were cultured in normal culture medium without drug added. […] The cell growth inhibition rate was calculated by dividing the absorbance value at each concentration by the absorbance value of the control group. […] In the figures, the concentration of Apatinib is taken as the abscissa and the cell growth inhibition rate is taken as the ordinate.

Data set [2] has as its system liver cancer cell line HepG2. Briefly: MTT growth inhibition / IC50 on liver cancer cell line HepG2. The class given is cell-based. The method, then: After growing to 80% density, the cells were trypsinized, passaged and plated in a 96-well plate with 5000 cells per well. […] After 48 hours, the absorbance at each concentration was detected by the MTT method.
Another data set has as its system lung cancer A549 cells. The data set is described as follows: Tumor treatment experiment in A549 tumor cell-bearing nude mice.
In data set [3] the test system is liver cancer HepG2 cells, colorectal cancer LoVo, HT29, DLD1, SW480, and HCT116 cells. The data set is described as follows: Growth inhibition, Lenvatinib alone vs Sotagliflozin combined with Lenvatinib. The class given is cell-based. Particulars: Sotagliflozin at a safe dose; variety of cell lines. The text has this: Therefore, the effect of the combination in the safe concentration range of Sotagliflozin is better than the effect of each single agent. It is worth mentioning that the ability of Sotagliflozin in the combination to enhance the efficacy of VEGFR-targeting TKI drugs is not limited to a single drug of Apatinib.

Data set [4] deals with prostate cancer DU145 cells. Briefly: MTT inhibitory effect of Sotagliflozin on DU145 cells. It is filed as cell-based. As to conditions: 48 hours. The method, then: (§1) Prostate cancer DU145 cells, breast cancer MCF-7 cells, esophageal cancer KYSE30 cells, gastric cancer HGC-27 cells, cholangiocarcinoma RBE cells, ovarian cancer SKOV3 cells, and cervical cancer Hela cells were used to verify the inhibitory effect of Sotagliflozin on tumor cells. After growing to 80% density, the cells were trypsinized, passaged and plated in a 96-well plate with 5000 cells per well. After 24 hours, the medium was replaced with a medium containing the corresponding concentration of drug. After 48 hours, the absorbance at each concentration was detected by the MTT method.
(§2) The experiment included the following groups:
(§3) Control group: cells were cultured in normal culture medium without drug added.
(§4) Sotagliflozin test group: cells were treated by adding Sotagliflozin at different concentration to each culture medium.
(§5) After incubation, the cell growth inhibition rate was calculated by dividing the absorbance value at each concentration by the absorbance value of the control group. In the figures, the concentration of Sotagliflozin is taken as the abscissa and the cell growth inhibition rate is taken as the ordinate.

Data set [5] deals with lung cancer cell line A549. The data set is described as follows: MTT growth inhibition / IC50 on lung cancer cell line A549. It is filed as cell-based.
Source text: According to the tissue distribution characteristics of EGFR and SGLT1/2, the targets of Gefitinib and Sotagliflozin, the followings cells were selected for experimental verification: lung cancer cell line A549; colorectal cancer cell line LoVo, HT29, SW620, HCT116; cervical cancer HeLa; ovarian cancer SKOV3; gastric cancer HGC27; cholangiocarcinoma RBE; esophageal cancer KYSE30, and the like. After growing to 80% density, the cells were trypsinized, passaged and plated in a 96-well plate with 5000 cells per well. After 24 hours, the medium was replaced with a medium containing the corresponding concentration of drug. After 48 hours, the absorbance at each concentration was detected by the MTT method.
as §2
Sotagliflozin test group (FIG. 2-a-2): cells were treated by adding Sotagliflozin alone at 6 different concentrations, 0 μM, 10 μM, 30 μM, 40 μM, […] respectively, to the culture medium, and cell survival rate was measured after […] of incubation.

In data set [6] the test system is ovarian cancer SKOV3 cells. Briefly: MTT inhibitory effect of Sotagliflozin on SKOV3 cells. The class given is cell-based. As to conditions: 48 hours. As for the experimental part: as §1, §2, §3, §4, §5
The test system of data set [7] is gastric cancer HGC-27 cells. Briefly: MTT inhibitory effect of Sotagliflozin on HGC-27 cells. It is filed as cell-based. As to conditions: 48 hours. As for the experimental part:
as §1, §2, §3, §4, §5

The subject of data set [8] is esophageal cancer KYSE30 cells. Briefly: MTT inhibitory effect of Sotagliflozin on KYSE30 cells. It is filed as cell-based. Particulars: 48 hours. The method, then:
as §1, §2, §3, §4, §5

Data set [9] relates to breast cancer MCF-7 cells. The data set is described as follows: MTT inhibitory effect of Sotagliflozin on MCF-7 cells. It is filed as cell-based. As to conditions: 48 hours. As for the experimental part:
as §1, §2, §3, §4, §5

The test system of data set [10] is cholangiocarcinoma RBE cells. Briefly: MTT inhibitory effect of Sotagliflozin on RBE cells. It is filed as cell-based. As to conditions: 48 hours. The method, then:
as §1, §2, §3, §4, §5

The test system of data set [11] is normal human umbilical cord epithelial cells.
Data set [12] has as its system cervical cancer HeLa cells. Briefly: MTT inhibitory effect of Sotagliflozin on HeLa cells. The class given is cell-based. Particulars: 48 hours. As for the experimental part: as §1, §2, §3, §4, §5
The mark [13] stands for this setting: A549 tumor-bearing nude mice, gavage once every two days, 40 days.

pIC50: −log10 of the molar value. “Also recorded” adds a separate entry of the source. Where two headings read alike, the source gives them in different places.

Method for lung cancer A549 cells: After growing to the logarithmic phase, A549 cells were collected and resuspended in serum-free DMEM medium to 5×10^7 cells per ml. Each mouse was inoculated with 100 μl of 5×10^6 cells, and the tumor size was measured 19 days later. Mice were grouped according to the tumor size, and the average tumor size in each group was the same. Mice were administered after grouping.
The dose of Gefitinib was 100 mg per kilogram according to the reported dose for the treatment of A549 xenograft tumor in previous studies. The two drugs were administered by gavage, consistent with the current oral mode in clinical use. The dosing cycle was once every two days. The tumor size was measured every two days. After 40 days of administration, the test was ended, and the tumor was removed and weighed.

The term pIC50 denotes −log10 of the IC50, conventionally taken in molar units. With `N#CC1(c2ccc(NC(=O)c3cccnc3NCc3ccncc3)cc2)CCCC1` [Apatinib], the “inhibitory effect on tumor cells (cell growth inhibition rate)” value in [1] is on record as “limited”. In addition, the pIC50 in data set [2] (Homo sapiens, HepG2, Apatinib alone, cell survival rate after 2 h of incubation, read-out: IC50 value on HepG2 cells) is 4.34.

Take `COc1cc2ncnc(Nc3ccc(F)c(Cl)c3)c2cc1OCCCN1CCOCC1` [Gefitinib]: in the data set with lung cancer A549 cells (mouse, in vivo), the Average tumor volume is given as 504.8 and the “Tumor volume ratio of each group to the control group” value was 0.4881.

In the case of `COc1cc2nccc(Oc3ccc(NC(=O)NC4CC4)c(Cl)c3)c2cc1C(N)=O` [Lenvatinib], the “effect of addition of Sotagliflozin on inhibitory effect of Lenvatinib” value in data set [3] is given as “enhanced the inhibitory effect”.

Take Sotagliflozin: the “Tumor growth inhibition rate” value with lung cancer A549 cells (setting [13]) is 58.4. Besides, the “Tumor volume ratio of each group to the control group” value in the data set with lung cancer A549 cells (setting [13]) was determined as 0.416. Moreover, the Average tumor volume with lung cancer A549 cells (A549 tumor-bearing nude mice, gavage once every two days, 40 days, Sotagliflozin 30 mg/kg, Gefitinib 100 mg per kilogram) was 430.3. The “inhibitory effect on tumor volume / tumor growth” value in the data set with lung cancer A549 cells (tumor-bearing mice) is reported as “can inhibit tumor growth; also recorded: good inhibitory effect on tumor volume”. Moreover, the pIC50 in data set [4] is 4.39; in [5] (Sotagliflozin alone, lung cancer A549 cells, summary value, read-out: IC50) it was 4.15; in data set [5] (single agent alone, cell survival rate after 1 h of incubation, read-out: IC50 value on A549 cells), 4.14; in data set [6], 4.07; in [7], 4.31; in data set [8], 4.08. The pIC50 in data set [9] was 4.19; in data set [10] it was 3.74; in [2] (Sotagliflozin alone, liver cancer HepG2 cells, summary value, read-out: IC50) it was 3.94; in [2] (Sotagliflozin alone, cell survival rate after 2 h of incubation, read-out: IC50 value on HepG2 cells), 3.94; in [12], 4.09. Also, the “concentration at which mainly cell growth inhibition effect is exhibited” value in [11] is “lower than 8 μM”. Besides, the “concentration producing great cytotoxicity” value in data set [11] is on record as “higher than 80 μM”.

Values taken from patent publication US20220313652A1, “USE OF COMPOUND OR PHARMACEUTICALLY ACCEPTABLE SALT, DIMER OR TRIMER THEREOF IN MANUFACTURE OF MEDICAMENT FOR TREATING CANCER” (priority 2020, published 2022).
